Values after ≈ are worked out from the molar mass of the structure shown. Where two headings read alike, the source gives them in different places.
What was measured:
Allium cepa root tips [1] = experiment: Allium cepa assay, mitotic index and stages of dividing cells
Description: (§1) The frequency of chromosomal aberration was checked following protocol of Babatunde and Bakare[31].

Allium cepa root tips [2] = experiment: Allium cepa assay, chromosomal aberration test; conditions: 01.00 µL/mL; 72 h
Description: as §1

Allium cepa root [3] = experiment: Allium cepa assay, root growth; conditions: 1 μL/mL
[4] = Metal chelating activity assay; type: biochemical; conditions: for Metal chelating EC50: analyzed using XLSTAT software
[5] = DPPH free radical scavenging activity; type: biochemical; conditions: for DPPH scavenging EC50: analyzed using XLSTAT software
ABTS assay = type: biochemical; conditions: for ABTS scavenging EC50: analyzed using XLSTAT software
egg albumin = biological target: T1, egg albumin (Gallus gallus, UniProt P01012); experiment: Protein egg albumin denaturation assay; type: biochemical
T1 construct: albumin was extracted from a fresh egg collected from local market of Jorhat, India; from tissue; host or cells: fresh egg (egg white), local market
T1 sequence (P01012 whole entry): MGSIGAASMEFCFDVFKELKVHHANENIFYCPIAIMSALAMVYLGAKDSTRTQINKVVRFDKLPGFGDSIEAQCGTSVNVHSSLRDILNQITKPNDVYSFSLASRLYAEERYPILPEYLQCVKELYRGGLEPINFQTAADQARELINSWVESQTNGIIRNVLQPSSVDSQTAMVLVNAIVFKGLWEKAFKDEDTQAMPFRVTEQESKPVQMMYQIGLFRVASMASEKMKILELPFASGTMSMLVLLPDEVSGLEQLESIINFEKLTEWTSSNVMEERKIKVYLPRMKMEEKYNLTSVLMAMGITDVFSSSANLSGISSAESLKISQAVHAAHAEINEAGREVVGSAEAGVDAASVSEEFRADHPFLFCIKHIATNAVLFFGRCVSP

α-Amylase = experiment: Antidiabetic activity assay (α-amylase inhibitory); type: biochemical
Acetylcholinesterase = Acetylcholinesterase (Homo sapiens, UniProt P22303); experiment: Acetylcholinesterase inhibitory assay; type: biochemical
Chain of Acetylcholinesterase (P22303 32-614, species assumed): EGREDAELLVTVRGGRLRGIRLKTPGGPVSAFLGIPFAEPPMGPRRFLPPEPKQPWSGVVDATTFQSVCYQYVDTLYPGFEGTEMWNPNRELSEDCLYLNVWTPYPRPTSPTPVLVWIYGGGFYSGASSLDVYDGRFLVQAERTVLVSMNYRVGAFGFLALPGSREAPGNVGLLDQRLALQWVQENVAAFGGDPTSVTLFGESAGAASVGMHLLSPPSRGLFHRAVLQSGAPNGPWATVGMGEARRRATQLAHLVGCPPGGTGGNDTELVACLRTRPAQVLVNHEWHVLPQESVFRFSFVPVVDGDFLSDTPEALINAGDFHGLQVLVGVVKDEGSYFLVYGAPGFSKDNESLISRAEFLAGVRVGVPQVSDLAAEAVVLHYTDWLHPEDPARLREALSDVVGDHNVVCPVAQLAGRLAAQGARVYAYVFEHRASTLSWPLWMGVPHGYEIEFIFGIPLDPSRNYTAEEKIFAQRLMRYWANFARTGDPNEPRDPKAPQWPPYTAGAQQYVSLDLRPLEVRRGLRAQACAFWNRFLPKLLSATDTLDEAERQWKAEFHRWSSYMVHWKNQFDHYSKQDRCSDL

[6] = tested on: Staphylococcus aureus ATCC-11632; experiment: Broth micro dilution MIC; type: cell-based; conditions: ATCC11632, S. aureus
[7] = tested on: Bacillus subtilis ATCC-11774; experiment: Broth micro dilution MIC; type: cell-based; conditions: ATCC11774, B. subtilis
[8] = tested on: Streptococcus mutans ATCC-25175; experiment: Broth micro dilution MIC; type: cell-based; conditions: ATCC25175, S.mutans
[9] = tested on: Aspergillus fumigatus ATCC-204305; experiment: Broth micro dilution MIC; type: cell-based; conditions: ATCC204305, A. fumigatus
Allium cepa root [10] = conditions: 1 μL/mL
AChE = tested on: AChE; design: method as in PMID 19351555; conditions: cited from earlier work
BChE = tested on: BChE; design: method as in PMID 19351555; conditions: cited from earlier work
A. parasiticus = conditions: cited from earlier work
[11] = tested on: Staphylococcus aureus ATCC-11632; experiment: Disc diffusion, zone of inhibition
[12] = tested on: Bacillus subtilis ATCC-11774; experiment: Disc diffusion, zone of inhibition
B. cereus ATCC-10876 = experiment: Disc diffusion, zone of inhibition; conditions: Bacillus cereus
[13] = tested on: Streptococcus mutans ATCC-25175; experiment: Disc diffusion, zone of inhibition
[14] = tested on: Aspergillus fumigatus ATCC-204305; experiment: Disc diffusion, zone of inhibition
A. niger ATCC-16885 = experiment: Disc diffusion, zone of inhibition
[15] = tested on: Saccharomyces cerevisiae ATCC-9763; experiment: Disc diffusion, zone of inhibition
[16] = tested on: Candida albicans ATCC-66027; experiment: Disc diffusion, zone of inhibition
[17] = design: method as in PMID 23181593; conditions: cited from earlier work
[18] = design: method as in PMID 23181593; conditions: at 100 μg/mL; cited from earlier work
[19] = tested on: Salmonella typhimurium ATCC-13311; experiment: Disc diffusion, zone of inhibition; type: cell-based; conditions: Salmonella enterica, S. typhimurium, read-out: Zone of inhibition, standard drug
Experimental: Ciprofloxacin and fluconazole were used as standard antimicrobial drugs at a concentration (10 μg/disc) for bacterial and fungal strains, respectively.
MHA was used for culturing the bacteria from bacterial broth and kept at 37 °C for 24 h. The fungal broth was used to prepare fungal culture in PDB and it was kept at 28 °C for 48 h.

[20] = analyzed using Graph Pad Prism software
[21] = analyzed using MS-EXCEL software
[22] = Aspergillus fumigatus, ATCC204305

CCOS(C)(=O)=O [EMS, ethyl methanesulphonate]
Metaphase, dividing cells (Allium cepa root tips [1]; Allium cepa root tips, 1 μL/mL): 13.27% | Mitotic index (Allium cepa root tips [1]; Allium cepa root tips, 1 μL/mL): 1.96% | Prophase, dividing cells (Allium cepa root tips [1]; Allium cepa root tips, 1 μL/mL): 86.73% | Chromosomal aberration: Breakage (Allium cepa root tips [2]): 15 | Chromosomal aberration: Bridges (Allium cepa root tips [2]): 30 | Chromosomal aberration: Clumped (Allium cepa root tips [2]): 14 | Chromosomal aberration: Multipolarity (Allium cepa root tips [2]): 21 | Chromosomal aberration: Stickiness (Allium cepa root tips [2]): 28 | Total abberations (Allium cepa root tips [2]): 21.60% | Root length after treatment ± SD (Allium cepa root [3]; after treatment): 7.31 ± 0.013 cm | Root length before treatment ± SD (Allium cepa root [3]; before treatment): 7.24 ± 0.014 cm

O=C(O)CN(CCN(CC(=O)O)CC(=O)O)CC(=O)O [EDTA, ethylenediamminetetracetic acid]
Metal chelating IC50 [4, 20]: 12.11 ± 0.002 µg/mL | Metal chelating IC50 [4, 21]: 29.92 ± 0.002 µg/mL | Metal chelating EC50 [4]: 29.33 ± 0.064 µg/mL

C/C=C/c1ccc(OC)cc1 [Anethole standard, anethole]
DPPH scavenging IC50 [5, 20]: 0.58 ± 0.048 µg/mL | DPPH scavenging IC50 [5, 21]: 10.94 ± 0.026 µg/mL | DPPH scavenging EC50 [5]: 8.69 ± 0.058 µg/mL | ABTS scavenging IC50 (ABTS assay; [20]): 34.9 ± 0.004 µg/mL | ABTS scavenging IC50 (ABTS assay; [21]): 9.26 ± 0.002 µg/mL | ABTS scavenging EC50 (ABTS assay): 9.48 ± 0.048 µg/mL | Metal chelating IC50 [4, 20]: 12.15 ± 0.032 µg/mL | Metal chelating IC50 [4, 21]: 31.02 ± 0.018 µg/mL | Metal chelating EC50 [4]: 29.54 ± 0.032 µg/mL | EC50 (egg albumin): 132 µM | IC50 (egg albumin; Protein denaturation IC50, analyzed using Graph Pad Prism software): 1380 µM | IC50 (egg albumin; Protein denaturation IC50, analyzed using MS-EXCEL software): 130 µM | α-Amylase inhibitory IC50 (α-Amylase; [20]): 13.08 ± 0.016 µg/mL | α-Amylase inhibitory IC50 (α-Amylase; [21]): 22.16 ± 0.12 µg/mL | α-Amylase inhibitory EC50 (α-Amylase; analyzed using XLSTAT software): 21.75 ± 0.008 µg/mL | EC50 (Acetylcholinesterase): 208 µM | IC50 (Acetylcholinesterase; Acetylcholinesterase inhibitory IC50, analyzed using Graph Pad Prism software): 145 µM | IC50 (Acetylcholinesterase; Acetylcholinesterase inhibitory IC50, analyzed using MS-EXCEL software): 228 µM | MIC [6]: 95 µg/mL (≈ 641 µM) | MIC [7]: 90 µg/mL (≈ 607 µM) | MIC [8]: 15 µg/mL (≈ 101 µM) | MIC [9]: 65 µg/mL (≈ 439 µM) | Genotoxic effect (in words) (Allium cepa root tips [1]): no genotoxic effect | Anaphase, dividing cells (Allium cepa root tips [1]; Allium cepa, 1 μL/mL): 13.51% | Metaphase, dividing cells (Allium cepa root tips [1]; Allium cepa, 1 μL/mL): 18.92% | Prophase, dividing cells (Allium cepa root tips [1]; Allium cepa, 1 μL/mL): 59.46% | Telophase, dividing cells (Allium cepa root tips [1]; Allium cepa, 1 μL/mL): 8.10% | Root length before treatment ± SD (Allium cepa root [10]; 0 h): 7.71 ± 0.016 cm | Root length after treatment ± SD (Allium cepa root [10]; 72 h): 8.36 ± 0.009 cm | AChE inhibitory IC50 (AChE): 134.70 µg/mL | BChE inhibitory IC50 (BChE): 209.60 µg/mL | Concentration that inhibits completely the growth of A. parasiticus (A. parasiticus): 400 µg/mL | zone of inhibition at 100 µg/mL ([11]; ATCC11632): 8 mm | zone of inhibition at 250 µg/mL ([11]; ATCC11632): 10 mm | zone of inhibition at 500 µg/mL ([11]; ATCC11632): 14 mm | zone of inhibition at 100 µg/mL ([12]; ATCC11774): 8 mm | zone of inhibition at 250 µg/mL ([12]; ATCC11774): 11 mm | zone of inhibition at 500 µg/mL ([12]; ATCC11774): 13 mm | zone of inhibition at 250 µg/mL (B. cereus ATCC-10876; ATCC10876): 13 mm | zone of inhibition at 500 µg/mL (B. cereus ATCC-10876; ATCC10876): 16 mm | zone of inhibition at 50 µg/mL ([13]; ATCC25175): 12 mm | zone of inhibition at 100 µg/mL ([13]; ATCC25175): 16 mm | zone of inhibition at 250 µg/mL ([13]; ATCC25175): 18 mm | zone of inhibition at 500 µg/mL ([13]; ATCC25175): 23 mm | zone of inhibition at 250 µg/mL [14, 22]: 14 mm | zone of inhibition at 500 µg/mL [14, 22]: 18 mm | zone of inhibition at 250 µg/mL (A. niger ATCC-16885; Aspergillus niger, ATCC16885): 16 mm | zone of inhibition at 500 µg/mL (A. niger ATCC-16885; Aspergillus niger, ATCC16885): 21 mm | zone of inhibition at 500 µg/mL ([15]; Saccharomyces cerevisiae, ATCC9763): 16 mm | zone of inhibition at 500 µg/mL ([16]; Candida albicans, ATCC66027): 19 mm

O=C1O[C@H]([C@@H](O)CO)C(O)=C1O [Ascorbic acid]
DPPH scavenging IC50 [5, 20]: 0.60 ± 0.121 µg/mL | DPPH scavenging IC50 [5, 21]: 17.27 ± 0.004 µg/mL | DPPH scavenging EC50 [5]: 17.55 ± 0.056 µg/mL | ABTS scavenging IC50 (ABTS assay; [20]): 39.31 ± 0.84 µg/mL | ABTS scavenging IC50 (ABTS assay; [21]): 17.61 ± 0.012 µg/mL | ABTS scavenging EC50 (ABTS assay): 19.54 ± 0.121 µg/mL | DPPH scavenging activity ([17]; at 1000 μg/mL): 99.65% | DPPH IC50 [17]: 5.15 µg/mL | Reducing power [18]: 0.85

O=C(O)c1cn(C2CC2)c2cc(N3CCNCC3)c(F)cc2c1=O [ciprofloxacin, Ciprofloxacin]
zone of inhibition at 10 µg/disc [19]: 21 ± 0.015 mm | zone of inhibition at 10 µg/disc ([11]; ATCC11632, read-out: Zone of inhibition, standard drug): 19 ± 0.017 mm | zone of inhibition at 10 µg/disc ([12]; ATCC11774, read-out: Zone of inhibition, standard drug): 16 ± 0.015 mm | zone of inhibition at 10 µg/disc (B. cereus ATCC-10876; ATCC10876, read-out: Zone of inhibition, standard drug): 15 ± 0.013 mm | zone of inhibition at 10 µg/disc ([13]; ATCC25175, read-out: Zone of inhibition, standard drug): 7 ± 0.015 mm

OC(Cn1cncn1)(Cn1cncn1)c1ccc(F)cc1F [fluconazole]
Zone of inhibition, standard drug ([14]; A. fumigatus, 10 µg/disc): 16 ± 0.011 mm | zone of inhibition at 10 µg/disc ([14]; Aspergillus fumigatus, ATCC204305, read-out: Zone of inhibition, standard drug): 16 mm | Zone of inhibition, standard drug (A. niger ATCC-16885; A. niger, 10 µg/disc): 12 ± 0.013 mm | zone of inhibition at 10 µg/disc (A. niger ATCC-16885; Aspergillus niger, ATCC16885, read-out: Zone of inhibition, standard drug): 12 mm | Zone of inhibition, standard drug ([15]; S. cerevisiae, 10 µg/disc): 14 ± 0.016 mm | zone of inhibition at 10 µg/disc ([15]; Saccharomyces cerevisiae, ATCC9763, read-out: Zone of inhibition, standard drug): 14 mm | Zone of inhibition, standard drug ([16]; C. albicans, 10 µg/disc): 20 ± 0.014 mm | zone of inhibition at 10 µg/disc ([16]; Candida albicans, ATCC66027, read-out: Zone of inhibition, standard drug): 20 mm

— article PMC9200763 (Scientific Reports, 2022)
